Laboratory results from patent US11634447B2 (priority 2012, dated 2023).

How the values were obtained:
FimH-CRD [1] = biological target: T1, FimH-CRD (Escherichia coli, UniProt P08191); experiment: Competitive binding assay by fluorescence polarization, assay 1 (compounds prepared by manual dilution); set-up: species or system E. coli
T1 construct: The first 177 amino acids of the FimH protein are expressed as a fusion protein; thrombin tag (printed as 'fusion protein with thrombin') (cleaved yes); made in house; host or cells: bacteria (pET21b plasmid)
T1 sequence (P08191 22-177): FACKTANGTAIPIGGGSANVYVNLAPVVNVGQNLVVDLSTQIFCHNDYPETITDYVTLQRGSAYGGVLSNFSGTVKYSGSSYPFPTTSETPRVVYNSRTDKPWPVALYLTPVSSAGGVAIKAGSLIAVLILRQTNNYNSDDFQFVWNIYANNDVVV
How it was run: (§1)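 FimH-CRD (residues 1-177, tag removed) at 60 nM competed against 5 nM Alexa 647 mannoside probe in 50 mM Tris-Cl pH 7.0, 100 mM NaCl, 1 mM EDTA, 5 mM β-mercaptoethanol, 0.05% BSA, 2.5% DMSO; 5 h, room temperature, dark. Compounds 0.4 nM-75 μM final, 12-point 3-fold, duplicate; Kd from fluorescence polarization displacement curves. Assay 1: manual dilution; assay 2: robotic dilution, plates frozen/thawed.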

FimH-CRD [2] = biological target: T1, FimH-CRD; experiment: Competitive binding assay by fluorescence polarization, assay 2 (compounds prepared by a robotics system, plates frozen and thawed); set-up: species or system E. coli
How it was run: as §1

Measured: Kd

OC[C@H]1O[C@H](Cc2ccc(-c3ccc(C[C@H]4O[C@H](CO)[C@@H](O)[C@H](O)[C@@H]4O)cc3)cc2)[C@@H](O)[C@@H](O)[C@@H]1O [Compound 41, ((2R,3S,4R,5S,6R)-2-(Hydroxymethyl)-6-[[4-[4-[[(2R,3S,4R,5S,6R)-3,4,5-trihydroxy-6-(hydroxymethyl)tetrahydropyran-2-yl]methyl]phenyl]phenyl]methyl]tetrahydropyran-3,4,5-triol)]
< 5 nM: FimH-CRD [1]; Assay 1 Kd, 5 nM Alexa 647 mannoside probe, 60 nM FimH-CRD, replicate values in one cell | FimH-CRD [1]; read-out: Assay 1 Kd, 5 nM Alexa 647 mannoside probe, 60 nM FimH-CRD, replicate values in one cell | FimH-CRD [2]; Assay 2 Kd, 5 nM Alexa 647 mannoside probe, 60 nM FimH-CRD, replicate values in one cell | FimH-CRD [2]; read-out: Assay 2 Kd, 5 nM Alexa 647 mannoside probe, 60 nM FimH-CRD, replicate values in one cell
